# From patent US11939304B1, “Ethyl 6-(5-(3-fluorophenyl)-4-phenyl-4H-1,2,4-triazol-3-ylthio)hexanoate as an antimicrobial compound” (KING FAISAL UNIVERSITY, priority 2023, dated 2024)
# Experiments:
# Bacillus cereus = experiment: agar plate disc-diffusion, antibacterial inhibition zone; type: cell-based; details: nutrient agar, 37° C., 48 hours, DMSO zone subtracted
# Description: (§1) The agar plate disc-diffusion method was applied. […] The discs were then placed onto the surface of agar plates (nutrient agar for bacteria and Sabouraud's dextrose agar for fungi) seeded with the test organism. Each plate contained 15 mL of the agar medium, previously seeded with 0.2 mL of the broth culture of each organism pregrown for 18 hours. The plates were incubated at 37° C. for 48 hours, and 72 hours for fungi. The inhibition zones were measured in mm. Discs impregnated with DMSO were used as a control, and its inhibition zone was subtracted from the tested compound actual inhibition zone.
# Escherichia coli = experiment: as above; type: cell-based; details: nutrient agar, 37° C., 48 hours, DMSO zone subtracted
# Description: as §1
# Pseudomonas aeruginosa = experiment: as above; type: cell-based; details: nutrient agar, 37° C., 48 hours, DMSO zone subtracted
# Description: as §1
# Staphylococcus aureus = experiment: as above; type: cell-based; details: nutrient agar, 37° C., 48 hours, DMSO zone subtracted
# Description: as §1
# Aspergillus flavus = experiment: agar plate disc-diffusion, antifungal inhibition zone; type: cell-based; details: Sabouraud's dextrose agar, 37° C., 72 hours, DMSO zone subtracted
# Description: as §1
# [1] = test system: Chrysosporium keratinophilum; experiment: as above; type: cell-based; details: Sabouraud's dextrose agar, 37° C., 72 hours, DMSO zone subtracted
# Description: as §1
# [2] = A = concentration of comp. = 10,000 μL
# [3] = B = concentration of comp. = 30,000 μL
# [4] = C = concentration of comp. = 50,000 μL
compound,measurement,setting,value
"CCOC(=O)CCCCCSc1nnc(-c2cccc(F)c2)n1-c1ccccc1 [III, ethyl 6-(5-(3-fluorophenyl)-4-phenyl-4H-1,2,4-triazol-3-ylthio)hexanoate]","inhibition zone, Bacillus Cereus, A",Bacillus cereus; [2],28 mm
same,"inhibition zone, Bacillus Cereus, B",Bacillus cereus; [3],30 mm
same,"inhibition zone, Bacillus Cereus, C",Bacillus cereus; [4],41 mm
same,"inhibition zone, Escherichia coli, A",Escherichia coli; [2],27 mm
same,"inhibition zone, Escherichia coli, B",Escherichia coli; [3],35 mm
same,"inhibition zone, Escherichia coli, C",Escherichia coli; [4],50 mm
same,"inhibition zone, Pseudomonas aeruginosa, A",Pseudomonas aeruginosa; [2],26 mm
same,"inhibition zone, Pseudomonas aeruginosa, B",Pseudomonas aeruginosa; [3],29 mm
same,"inhibition zone, Pseudomonas aeruginosa, C",Pseudomonas aeruginosa; [4],41 mm
same,"inhibition zone, Staphylococcus aureus, A",Staphylococcus aureus; [2],12 mm
same,"inhibition zone, Staphylococcus aureus, B",Staphylococcus aureus; [3],19 mm
same,"inhibition zone, Staphylococcus aureus, C",Staphylococcus aureus; [4],23 mm
same,"inhibition zone, Aspergillus flavus, A",Aspergillus flavus; [2],24 mm
same,"inhibition zone, Aspergillus flavus, B",Aspergillus flavus; [3],27 mm
same,"inhibition zone, Aspergillus flavus, C",Aspergillus flavus; [4],38 mm
same,"inhibition zone, Chrysosporium keratinophilum, A",[1]; [2],23 mm
same,"inhibition zone, Chrysosporium keratinophilum, B",[1]; [3],28 mm
same,"inhibition zone, Chrysosporium keratinophilum, C",[1]; [4],42 mm
same,melting point,,107 to 109 °C
